The text below walks through data of patent US20120238762A1, “AZOLE DERIVATIVES AND METHODS FOR PRODUCING THE SAME, INTERMEDIATE COMPOUNDS FOR THE DERIVATIVES AND METHODS FOR PRODUCING THE SAME, AND AGRO-HORTICULTURAL AGENTS AND INDUSTRIAL MATERIAL PROTECTING AGENTS CONTAINING THE DERIVATIVES” (KUREHA CORPORATION, priority 2009, published 2012).

Data set [1] is described as follows: Mycelial growth inhibition on plate medium against industrial material deteriorating microorganisms, treatment at 50 mg/l. Particulars: read-out: Growth inhibition grade.
Procedure: Compound (I) was dissolved in 2 ml of dimethyl sulfoxide. 0.6 ml of this solution was added to 60 ml of a PDA medium (potato dextrose agar medium) and at about 60 degrees C., which was mixed thoroughly in a 100-ml conical flask, and poured into a dish, where it was solidified, thereby obtaining a plate medium containing the inventive compound at a certain concentration.
On the other hand, a subject microorganism previously cultured on a plate medium was cut out using a cork borer whose diameter was 4 mm, and inoculated to the test compound-containing plate medium described above. […] The growth degree of the microorganism on the test compound-containing plate medium was compared with the growth degree of the microorganism in the untreated group, and % mycelial growth inhibition was calculated by the following equation.
wherein R=% mycelial extension inhibition, dc=flora diameter in untreated plate, dt=flora diameter in treated plate.
The results obtained were evaluated as one of the 5 grades in accordance with the following criteria.
<Growth Inhibition Grade>
4: % Mycerial growth inhibition of less than 80 to 60% or higher
3: % Mycerial growth inhibition of less than 60 to 40% or higher
2: % Mycerial growth inhibition of less than 40 to 20% or higher
The subject of data set [2] is various phytopathogenic fungi for plants and hazardous microorganism for industrial materials. Nature of the data set: microbe, parasite or virus in culture. Set-up: dose or concentration left out as unconfirmed. The data set is classed as cell-based.
Where [3] appears, read: Alternaria alternata, read-out: Growth inhibition grade, A.m.
[4] abbreviates: Fusarium graminearum, read-out: Growth inhibition grade, F.g.
[5] abbreviates: Parastagonospora nodorum, read-out: Growth inhibition grade, P.n.
Where [6] appears, read: Pyricularia oryzae, read-out: Growth inhibition grade, P.o.
Setting [7] is: Rhynchosporium secalis, read-out: Growth inhibition grade, R.sec.
Where [8] appears, read: Sclerotinia sclerotiorum, read-out: Growth inhibition grade, S.s.
The mark [9] stands for this setting: Ustilago nuda, read-out: Growth inhibition grade, U.n.
Setting [10] is: read-out: Growth inhibition grade, B.c.
Where [11] appears, read: read-out: Growth inhibition grade, F.c.
Setting [12] is: read-out: Growth inhibition grade, G.f.
Where [13] appears, read: read-out: Growth inhibition grade, P.h.

The term inhibition denotes the change of the read-out against control, counted positive when it falls. The melting point is the temperature, or range, at which the solid turns liquid. Regarding `OC(CC1CC1(Br)Br)(Cn1cncn1)C1(Cl)CC1` (single isomer, unassigned) [I-210a, 2-(1-chlorocyclopropyl)-1-(2,2-dibromocyclopropyl)-3-(1H-1,2,4-triazol-1-yl)propan-2-ol], the melting point is 114 °C. The inhibition at 50 µg/mL in data set [1] was 60 to 80%. Also, the inhibition in data set [2] (setting [3]) was over 80%. Moreover, in data set [2] (setting [4]), the inhibition is over 80%. For the same compound, the inhibition in data set [2] (setting [5]) is over 80%. In addition, the inhibition in data set [2] (setting [6]) is over 80%. The inhibition in data set [2] (setting [7]) was over 80%. For the same compound, the inhibition in data set [2] (setting [8]) was over 80%. In addition, the inhibition in data set [2] (setting [9]) is over 80%. Further, the inhibition in data set [2] (setting [10]) is over 80%. Besides, the inhibition in data set [2] (setting [11]) is over 80%. Also, the inhibition in data set [2] (setting [12]) is over 80%. For the same compound, in data set [2] (setting [13]), the inhibition is over 80%.

`OC(CCC1CC1(Cl)Cl)(Cn1cncn1)C1(Cl)CC1` (single isomer, unassigned) [I-607b, 2-(1-chlorocyclopropyl)-4-(2,2-dichlorocyclopropyl)-1-(1H-1,2,4-triazol-1-yl)butan-2-ol]: the melting point is 83 to 84 °C. Moreover, in data set [1], the inhibition at 50 µg/mL lay within 60 to 80%.

`OC(CC1CC1(Cl)Cl)(CC1CC1(Cl)Cl)Cn1cncn1` (single isomer, unassigned) [I-277b, 1,3-bis(2,2-dichlorocyclopropyl)-2-(1H-1,2,4-triazol-1-ylmethyl)propan-2-ol] registered a melting point of 105 to 106.5 °C.

For `OC(CC1CC1(Cl)Cl)(CC1CC1(Cl)Cl)Cn1cncn1` (single isomer, unassigned) [I-277a, 1,3-bis(2,2-dichlorocyclopropyl)-2-(1H-1,2,4-triazol-1-ylmethyl)propan-2-ol], the melting point fell in the range of 114 to 115 °C.

On to `OC(Cn1cncn1)(C1CC1(Cl)Cl)C1(Cl)CC1` (single isomer, unassigned) [I-2a, 1-(1-chlorocyclopropyl)-1-(2,2-dichlorocyclopropyl)-2-(1H-1,2,4-triazol-1-yl)ethanol], for which the inhibition at 50 µg/mL in data set [1] is 60 to 80%. For the same compound, the inhibition in data set [2] (setting [3]), in data set [2] (setting [4]), in data set [2] (setting [5]), in data set [2] (setting [6]), in data set [2] (setting [7]) and in data set [2] (setting [8]) was over 80% throughout. Further, the inhibition in data set [2] (setting [9]), in data set [2] (setting [10]), in data set [2] (setting [11]), in data set [2] (setting [12]) and in data set [2] (setting [13]) was over 80% throughout.

Compound `OC(CCC1CC1(Cl)Cl)(Cn1cncn1)C1(Cl)CC1` (single isomer, unassigned) [I-607a, 2-(1-chlorocyclopropyl)-4-(2,2-dichlorocyclopropyl)-1-(1H-1,2,4-triazol-1-yl)butan-2-ol] showed a melting point of 130 to 131 °C. Moreover, the inhibition in data set [2] (setting [3]) was over 80%. Further, the inhibition in data set [2] (setting [4]) is over 80%. Besides, the inhibition in data set [2] (setting [5]) was over 80%. Also, the inhibition in data set [2] (setting [6]) was over 80%. For the same compound, in data set [2] (setting [7]), the inhibition is over 80%. Also, the inhibition in data set [2] (setting [8]) is over 80%. Moreover, the inhibition in data set [2] (setting [9]) is over 80%. Besides, the inhibition in data set [2] (setting [10]) is over 80%. For the same compound, the inhibition in data set [2] (setting [11]) was over 80%. In data set [2] (setting [12]), the inhibition is over 80%. The inhibition in data set [2] (setting [13]) is over 80%.
